Source: US20040024024A1, “Aromatic sulfone hydroxamates and their use as protease inhibitors” (priority 2001, published 2004)

Key:
Human recombinant MMP-14 = target: T1, Human recombinant MMP-14 (Homo sapiens, UniProt P50281); test: In vitro MMP inhibition, IC50 determination (fluorogenic substrate I); type: biochemical; settings: value outside parentheses
T1 construct: The catalytic domain enzyme was expressed in E. coli inclusion bodies, solubilized in urea; made in house
How it was run: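 IC50 came from reduced fluorescence (ex 328 nm, em 415 nm) as inhibitor concentration rose, with 4 μM substrate I cleaved at Gly-Leu. Room-temperature incubation in pH 7.5 Tris buffer with 10 mM CaCl2; the E. coli-expressed, refolded MMP-14 catalytic domain was activated with trypsin or APMA.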

Human recombinant MMP-2 = target: T2, Human recombinant MMP-2 (Homo sapiens, UniProt P08253); test: In vitro MMP inhibition, Ki determination (fluorogenic substrate II); type: biochemical; settings: value in parentheses
T2 construct: made in house; host or cells: MMP-2-transfected p2AHT2 cells
T2 sequence (P08253 110-660): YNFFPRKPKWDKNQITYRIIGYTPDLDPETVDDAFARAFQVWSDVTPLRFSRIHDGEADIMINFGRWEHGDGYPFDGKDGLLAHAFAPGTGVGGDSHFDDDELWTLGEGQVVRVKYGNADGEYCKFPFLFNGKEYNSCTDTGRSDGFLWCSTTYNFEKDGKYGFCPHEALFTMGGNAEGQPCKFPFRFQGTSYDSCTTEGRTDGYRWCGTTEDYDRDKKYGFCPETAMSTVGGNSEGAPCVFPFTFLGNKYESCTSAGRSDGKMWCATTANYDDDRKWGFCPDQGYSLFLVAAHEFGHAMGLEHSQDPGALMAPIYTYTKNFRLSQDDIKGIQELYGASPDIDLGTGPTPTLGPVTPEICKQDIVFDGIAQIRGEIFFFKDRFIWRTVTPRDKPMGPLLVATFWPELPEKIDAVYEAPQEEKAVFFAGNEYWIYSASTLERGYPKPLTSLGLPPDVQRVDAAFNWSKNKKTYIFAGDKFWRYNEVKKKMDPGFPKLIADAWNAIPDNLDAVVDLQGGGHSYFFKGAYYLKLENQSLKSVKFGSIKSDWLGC
Procedure: Several hydroxamates and salts thereof were analyzed in in vitro assays to determine their ability to inhibit the MMP cleavage of peptide substrates. Inhibition (Ki) and IC50 constants were calculated from the assayed hydroxamate-MMP interactions.
Human recombinant MMP-1, MMP-2, MMP-9, MMP-13, and MMP-14 were used in this assay. All enzymes were prepared in Assignee's laboratories following usual laboratory procedures. Protocols for the preparation and use of these enzymes are available in the scientific literature. See, e.g., Enzyme Nomenclature (Academic Press, San Diego, Calif., 1992) (and the citations therein). See also, Frije et al., J. Biol. Chem., 26(24), 16766-73 (1994).
The MMP-2 proenzyme was purified by gelatin Sepharose chromatography from MMP-2-transfected p2AHT2 cells provided by Dr. Gregory Goldberg of Washington University (St. Louis, Mo.).
All MMPs were activated using 4-aminophenylmercuric acetate (“APMA”, Sigma Chemical, St. Louis, Mo.) or trypsin. MMP-9 also was activated using human recombinant MMP-3 (purified in Assignee's laboratory following standard cloning and purification techniques).
Two fluorogenic, methoxycoumarin-containing polypeptide substrates were used in the MMP inhibition assays:
MCA-ArgProLeuGlyLeuDpaAlaArgGluArgNH2 (II)
Here, “Dpa” is 3-(2,4-dinitrophenyl)-L-2,3-diaminopropionyl group, and “MCA” is 7-methoxycoumarin-4-yl acetyl. Substrate (I) was purchased from Baychem (Redwood City, Calif.), and substrate II was prepared Assignee's laboratory. Substrate I was used in the IC50 determination assays, while substrate II was used in the Ki determination assays. In the absence of MMP inhibitory activity, either substrate is cleaved at the Gly-Leu peptide bond. This cleavage separates the highly fluorogenic peptide from the 2,4-dinitrophenyl quencher, thus resulting in increase of fluorescent intensity.
The stock solutions of the assayed hydroxamates (or salts thereof) were prepared in 1% dimethyl sulfoxide (DMSO). These stock solutions were diluted in Buffer A (100 mM Tris-HCl, 100 mM NaCl, 10 mM CaCl2, 0.05% polyoxyethylene 23 lauryl ether, pH 7.5) to obtain solutions with different hydroxamate concentrations, i.e., assay solutions with different concentrations of the assayed MMP inhibitory compound. The experiment controls contained the same amount of Buffer A/DMSO as the assayed sample, but contained no hydroxamate (or salt thereof).
The assays from which the Ki determinations were made were performed as follows. The assayed hydroxamate samples were incubated in separate wells of untreated white polystyrene plates (Nunc Nalgene International, Rochester, N.Y.), and analyzed on a Tecan SpectraFlour Plus plate reader. The excitation wavelength was 330 nm, and the emission wavelength—420 nm. All samples (assayed hydroxamates and controls) were incubated in separate plate wells at room temperature for 1 hr in the presence of 4 μM of MMP substrate (II). In the absence of MMP inhibitory activity, substrate II was cleaved at the Gly-Leu bond resulting in an increase of relative fluorescence. Inhibition was observed as a reduced rate of this increase in relative fluorescence. The various hydroxamates were analyzed using a single low enzyme concentration with a single substrate concentration fixed at or below the Km. This protocol is a modification of method by Knight et al., FEBS Lett., 296(3), 263-266 (1992). Apparent inhibitory constants were determined by non-linear regression of reaction velocity as a function of inhibitor and enzyme concentration using Morrison's equation, as described by Kuzmic, Anal. Biochem. 286, 45-50 (2000). […] Since the substrate concentration was chosen to be at or below the Km, the apparent Ki's from this analysis were reported as Ki's without correction for the influence of substrate.

Row | Compound | IC50 (Human recombinant MMP-14) [µM] | Ki (Human recombinant MMP-2) [nM]
1 | O=C(NO)C1(S(=O)(=O)c2ccc(OCCCc3cccc(-c4ccc([N+](=O)[O-])cc4)c3)cc2)CCOCC1 [Example 626] | > 10 | 645
2 | O=C(NO)C1(S(=O)(=O)c2ccc(OCCCc3cccc(-c4ccc5c(c4)OCO5)c3)cc2)CCOCC1 [Example 628] | > 10 | 2750
3 | O=C(NO)C1(S(=O)(=O)c2ccc(OCCCc3cccc(-c4ccc(F)cc4F)c3)cc2)CCOCC1 [Example 630] | > 10 | 2070
4 | O=C(NO)C1(S(=O)(=O)c2ccc(OCCCc3cccc(-c4ccsc4)c3)cc2)CCOCC1 [Example 632] | > 10 | 279
5 | O=C(NO)C1(S(=O)(=O)c2ccc(OCCCc3cccc(-c4ccoc4)c3)cc2)CCOCC1 [Example 637] | > 10 | 498
